Laboratory results from patent US7314716B2, “Gustducin γ subunit materials and methods” (Mount Sinai School of Medicine, priority 1999, dated 2008).

Assays:
murine taste tissue [1] = settings: shown previously; cited from earlier work
murine taste tissue [2] = test: Rapid time course quench-flow IP3 generation in murine taste tissue; type: biochemical, mouse; settings: addition to murine taste tissue homogenate supernatant
Experimental: To confirm that gustducin γ subunit does indeed function in taste transduction rapid time course quench-flow experiments were carried out essentially as described in Tarelius et al., pp. 193–202 in Spielman et al., Eds., Experimental Cell Biology of Taste and Olfaction. Current Techniques & Protocols, CRC Press, Boca Raton (1995). […] Furthermore, it has been shown that the denatonium response depends upon a novel phospholipase C (PLC) β2 isotype specifically expressed in taste receptor cells.
Tongues were excised from 6 to 8 week old female SWR mice, and lingual papillae removed. One vallate and two foliate papillae and nongustatory control tissue from the dorsal eminence of the peeled epithelium were placed in ice-cold MOPS buffer pH 6.9 (50 mM MOPS, 100 mM NaCl, 0.081 mM CaCl2 and 2.5 mM MgCl2), containing 10 mM EGTA, 1 mM DTT, and a protease inhibitor cocktail [1 mg/ml, specific for serine, cysteine, aspartic and metallo-proteinases (Sigma)]. Tissue collected from twenty-five tongues was homogenized in MOPS-EGTA buffer pH 6.9, without the enzyme inhibitors, and centrifuged (1000×g for 20 min. at 4° C.). The recovered supernatant (at a protein concentration of about 30 μg/ml), was used for rapid kinetic experiments. […]

gustducin α subunit = test: Trypsin sensitivity assay of gustducin α subunit activation by denatonium-stimulated taste membranes; type: biochemical
Experimental: To confirm this idea, yet another trypsin sensitivity assay was utilized.
Five μl aliquots of in vitro translated gustducin α subunit were incubated with 5 μg of purified taste membranes or control non-taste membranes, 0.1 mM GDP, 1 μM GTPγS, with or without 5 mM of the bitter compound denatonium, plus a 10 μl aliquot of cotranslated β1/gustducin γ subunit or β2/γ2 dimer, or 10 μl rabbit reticulocyte lysate (the minus βγ control) for 1 hour at 30° C., followed by digestion with trypsin as described in Ming et al., Proc. Natl. Acad. Sci. USA, 95: 8933–8938 (1998).

[3] = taste receptor-containing membranes stimulated by 5 mM denatonium

Row | Compound | generation of IP3 in control non-taste tissue (murine taste tissue [1]) | generation of IP3 relative to basal level (murine taste tissue [2]) | enhancement of activation of gustducin α subunit (gustducin α subunit; control non-taste membranes) | enhancement of activation of gustducin α subunit (gustducin α subunit; [3])
1 | CC[N+](CC)(CC(=O)Nc1c(C)cccc1C)Cc1ccccc1 [denatonium benzoate] | not in control non-taste tissue | slightly more than twice the basal level | – | –
2 | CC(=O)OC[C@H]1O[C@@](COC(C)=O)(O[C@H]2O[C@H](COC(C)=O)[C@@H](OC(C)=O)[C@H](OC(C)=O)[C@H]2OC(C)=O)[C@@H](OC(C)=O)[C@@H]1OC(C)=O [sucrose octa-acetate] | not in control non-taste tissue | – | – | –
3 | β1/gustducin γ subunit: cotranslated β1/gustducin γ subunit dimer | – | – | did not enhance activation | enhanced activation
4 | β2/γ2: cotranslated β2/γ2 dimer [reference compound] | – | – | – | did not enhance activation
